Experimental data taken from US20050250725A1, “Regulation of the P21 gene and uses thereof” (priority 2000, published 2005).

How the values were obtained:
renal cells = format: cell-based
Description: Percent apoptosis is also indicated.
Next, the cytoprotective effect of histone deacetylase inhibitors such as phenylbutyrate on renal cells was examined. Cells were control cells, or exposed to cisplatin (50 uM) alone, to phenylbutyrate (100 uM) or to phenybutyrate and cisplatin.

renal p21 expression = test: Renal p21 expression after cisplatin administration; format: in vivo
Description: The present invention examined the effect of p21 in protecting the renal function from cisplatin induced damage. An increase in renal p21 expression was observed after ischemia-reperfusion, urinary tract obstruction and cisplatin administration (FIG. 7). Further, to assess the significance of p21 in renal function, blood urea nitrogen was measured in mice with and without p21 gene subsequent to cisplatin administration. It was observed that the blood urea nitrogen for mice lacking the p21 gene was retained to a higher degree than the mice with p21 gene (FIG. 8).

Compound	protection from cisplatin-induced apoptosis (renal cells; prior exposure to phenylbutyrate, then cisplatin)	distribution of DNA (renal cells; renal cells exposed to phenylbutyrate 100 uM and cisplatin 50 uM)	renal p21 expression (renal p21 expression)
phenylbutyrate	protected from apoptosis	normal distribution of DNA	
N.N.[Cl][Pt][Cl] [cisplatin]			increase
